PubChem BioAssay (NCI)
Values joined by “and” are separate entries in the source; they are usually repeats but may differ in a detail not shown here. Equal entries are not always repeated.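 Protocol summary: plate cells (96-well), add compound at 5 concentrations, incubate 48 h, interpolate endpoints linearly. At the GI50, growth is halved. TGI: total growth inhibition.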

Tests used:
Assay in all cases: NCI tumour cell line growth inhibition, 48 h
[1] = tested on: MDA-N
[2] = tested on: DLD-1 colon
[3] = tested on: DMS 273 small cell lung
[4] = tested on: KM20L2 colon
[5] = tested on: LXFL 529 NSCLC
[6] = tested on: M19-MEL melanoma
[7] = tested on: SNB-78 CNS
[8] = tested on: XF 498 CNS
[9] = tested on: RXF-631 renal
[10] = tested on: P388 leukemia
[11] = tested on: P388/ADR leukemia

Question: Which TGI [1] does the source give for `O=C1c2ccccc2C(O)(O)C1(O)C1(O)C(=O)c2ccccc2C1(O)O` (stereo not drawn) here?
Answer: 48 µM

Question: `CCC1C2Cc3ccc(O)cc3C1(CC)CCN2C` (stereo not drawn) was tested. Which TGI [1] did it give?
Answer: > 100 µM

Question: Which TGI [1] does the source give for `COc1cc2ccc(/C=C\[N+](=O)[O-])cc2cc1OC` here?
Answer: 5.78 µM

Question: Which results are given for `COC(=O)/C(C)=C(/CCC1(C)OCCO1)O[Si](C)(C)C`?
Answer: TGI [2]: > 100 µM; TGI [3]: > 100 µM; TGI [4]: > 100 µM; TGI [5]: > 100 µM; TGI [6]: > 100 µM; TGI [7]: > 100 µM; TGI [8]: > 100 µM

Question: Which GI50 [2] does the source give for `CCC[CH2][Sn]1([CH2]CCC)[O]C(=O)c2cccnc2[O]1` here?
Answer: 3.11 µM

Question: And the TGI [2]?
Answer: 10.7 µM

Question: What about the GI50 [3] of the same compound?
Answer: 2.37 µM

Question: What about the TGI [3] of the same compound?
Answer: 11.3 µM

Question: What about the GI50 [4] of the same compound?
Answer: 3.96 µM

Question: And the TGI [4]?
Answer: 11.9 µM

Question: What about the GI50 [5] of the same compound?
Answer: 0.849 µM

Question: What about the TGI [5] of the same compound?
Answer: 2.22 µM

Question: What about the GI50 [6] of the same compound?
Answer: 4.26 µM

Question: What about the TGI [6] of the same compound?
Answer: 15.3 µM

Question: What about the GI50 [9] of the same compound?
Answer: 1.43 µM

Question: What about the TGI [9] of the same compound?
Answer: 2.73 µM

Question: What about the GI50 [7] of the same compound?
Answer: 2.07 µM

Question: And the TGI [7]?
Answer: 7.73 µM

Question: What about the GI50 [8] of the same compound?
Answer: 1.38 µM

Question: And the TGI [8]?
Answer: 2.92 µM

Question: How did the TGI [2] turn out when `CCc1cc(C(=O)OC)cn1C(=N)c1ccc(Cl)cc1` was run?
Answer: > 100 µM

Question: And the TGI [3]?
Answer: > 100 µM

Question: What about the TGI [4] of the same compound?
Answer: > 100 µM

Question: And the TGI [5]?
Answer: > 100 µM

Question: And the TGI [6]?
Answer: > 100 µM

Question: What about the TGI [7] of the same compound?
Answer: > 100 µM

Question: What about the TGI [8] of the same compound?
Answer: > 100 µM

Question: For `Cc1cc(=O)n(-c2ccccc2C)c(C)n1`, which TGI [2] is on record?
Answer: > 100 µM

Question: What about the TGI [3] of the same compound?
Answer: > 100 µM

Question: What about the TGI [4] of the same compound?
Answer: > 100 µM

Question: What about the TGI [5] of the same compound?
Answer: > 100 µM

Question: What about the TGI [6] of the same compound?
Answer: > 100 µM

Question: And the TGI [9]?
Answer: > 100 µM

Question: And the TGI [7]?
Answer: > 100 µM

Question: For `COc1cc2c(c(OC)c1OC)-c1ccc(SC)c(=O)cc1C(CO)C2` (stereo not drawn), which GI50 [2] is on record?
Answer: < 0.01 µM

Question: What about the GI50 [4] of the same compound?
Answer: < 0.01 µM

Question: What about the GI50 [5] of the same compound?
Answer: < 0.01 µM

Question: And the TGI [5]?
Answer: > 100 µM

Question: What about the GI50 [6] of the same compound?
Answer: < 0.01 µM

Question: And the TGI [6]?
Answer: > 100 µM

Question: What about the TGI [9] of the same compound?
Answer: > 100 µM

Question: What about the TGI [8] of the same compound?
Answer: 0.605 µM

Question: With `Cc1ccc2nc(NC(=O)C(=O)C(C#N)c3nc4ccccc4s3)sc2c1` (stereo not drawn) as the compound, how does the TGI [3] read?
Answer: > 100 µM

Question: What about the TGI [4] of the same compound?
Answer: > 100 µM

Question: What about the TGI [5] of the same compound?
Answer: > 100 µM

Question: And the TGI [6]?
Answer: > 100 µM

Question: And the TGI [9]?
Answer: > 100 µM

Question: What about the TGI [7] of the same compound?
Answer: > 100 µM

Question: What about the TGI [8] of the same compound?
Answer: 63.9 µM

Question: Which results are given for `CCS(CC)(CC)CC1CCCC2=CCC(P(=O)(c3ccccc3)c3ccccc3)CC21` (stereo not drawn)?
Answer: TGI [2]: 28.7 µM; TGI [3]: 26.4 µM; TGI [4]: 25.2 µM; TGI [5]: 22.4 µM; TGI [6]: 36.5 µM; TGI [9]: 31.5 µM; TGI [7]: 37.1 µM; TGI [8]: 17.4 µM

Question: What does the source list for `Cc1ccc(S(=O)(=O)OC2CSS(=O)CC2OS(=O)(=O)c2ccc(C)cc2)cc1` (stereo not drawn)?
Answer: TGI [2]: 23.6 µM; TGI [3]: 35.3 µM; TGI [4]: 32.6 µM; TGI [5]: 27.7 µM; TGI [6]: 30.5 µM; TGI [9]: 30.4 µM; TGI [7]: 58.9 µM; TGI [8]: 26.6 µM

Question: Which results are given for `OC(c1ccccc1)(c1ccccc1)c1ccncc1`?
Answer: TGI [2]: > 100 µM; TGI [3]: > 100 µM; TGI [4]: > 100 µM; TGI [5]: > 100 µM; TGI [6]: > 100 µM; TGI [7]: > 100 µM; TGI [8]: > 100 µM

Question: For `O=C(O)C(SC(=S)c1ccc(C(=S)SC(C(=O)O)c2ccccc2)cc1)c1ccccc1` (stereo not drawn), which TGI [2] is on record?
Answer: > 100 µM

Question: And the TGI [3]?
Answer: > 100 µM

Question: What about the TGI [5] of the same compound?
Answer: > 100 µM

Question: What about the TGI [9] of the same compound?
Answer: > 100 µM

Question: And the TGI [7]?
Answer: > 100 µM

Question: And the TGI [8]?
Answer: > 100 µM

Question: `Clc1ccc(C2SCc3nc4ccccc4n32)c(Cl)c1` (stereo not drawn) was tested. Which TGI [2] did it give?
Answer: 30.3 µM

Question: And the TGI [4]?
Answer: 36.3 µM

Question: What about the TGI [5] of the same compound?
Answer: 24.5 µM

Question: And the TGI [6]?
Answer: 28.9 µM

Question: What about the TGI [8] of the same compound?
Answer: 33.6 µM

Question: Which results are given for `CC1CCC(NC(=O)N(CCCl)N=O)CC1` (stereo not drawn)?
Answer: GI50 [2]: 22.3 µM; TGI [2]: 47.7 µM and 79.4 µM; GI50 [3]: 26.6 µM; TGI [3]: 82.3 µM and 74 µM; GI50 [4]: 44.7 µM; TGI [4]: 120 µM; TGI [5]: 28.7 µM; GI50 [6]: 53.1 µM; TGI [6]: 98 µM; TGI [1]: 90.1 µM; TGI [10]: 55.8 µM; TGI [11]: 56.8 µM; GI50 [7]: 20.1 µM; TGI [7]: 88.7 µM and 110 µM; GI50 [8]: 16.4 µM; TGI [8]: 43.5 µM and 81.2 µM

Question: With `COc1c(C)c2c(c(O)c1C/C=C(\C)CCC(=O)O)C(=O)OC2` as the compound, how does the TGI [2] read?
Answer: > 100 µM

Question: What about the TGI [3] of the same compound?
Answer: > 100 µM

Question: And the TGI [5]?
Answer: > 100 µM

Question: What about the TGI [6] of the same compound?
Answer: > 100 µM

Question: What about the TGI [1] of the same compound?
Answer: > 100 µM

Question: `Cc1ccc(S(=O)(=O)N/N=C/c2c(O)ccc3ccccc23)cc1` was tested. Which TGI [1] did it give?
Answer: > 100 µM

Question: Which TGI [1] does the source give for `O=C(O)C(/C=C/c1ccccc1)c1ccccc1` (stereo not drawn) here?
Answer: > 100 µM

Question: Which results are given for `COc1cc(/C=C2/C(=O)N(C(=O)OCC(C)C)C(Cc3cc(OC)c(OC)c(C)c3OC)C(=O)N2Cc2ccccc2)c(OC)c(C)c1OC` (stereo not drawn)?
Answer: TGI [2]: > 100 µM; TGI [3]: > 100 µM; TGI [4]: > 100 µM; TGI [5]: > 100 µM; TGI [6]: > 100 µM; TGI [9]: > 100 µM
